The values below come from patent publication US6645976B1 (Eli Lilly and Company, priority 1994, dated 2003).

For this assay, the target named is T1, recombinant human secreted phospholipase A2 (Homo sapiens, UniProt P14555).
T1 sequence (P14555 21-144): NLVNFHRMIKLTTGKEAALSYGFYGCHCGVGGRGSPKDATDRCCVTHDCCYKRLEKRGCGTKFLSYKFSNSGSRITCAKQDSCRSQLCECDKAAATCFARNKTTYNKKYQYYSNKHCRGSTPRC
Description: sPLA2 Chromogenic Assay (Assay 1). The assay is classed as biochemical. Particulars: diheptanoyl thio-PC substrate, pH 7.5, 40° C. for 30 minutes, absorbance at 405 nanometers.
Description: The following chromogenic assay procedure was used to identify and evaluate inhibitors of recombinant human secreted phospholipase A2. The assay described herein has been adapted for high volume screening using 96 well microtiter plates.
A measured volume of racemic dipheptanoyl thio PC supplied in chloroform at a concentration of 100 mg/ml is taken to dryness and redissolved in 10 millimolar TRITON X-100™ nonionic detergent aqueous solution. Reaction Buffer is added to the solution, then DTNB to give the Reaction Mixture.
The reaction mixture thus obtained contains 1 mM diheptanoyl thio-PC substrate, 0.29 mm Triton X-100™ detergent, and 0.12 mm DTMB in a buffered aqueous solution at pH 7.5.
1. Add 0.2 ml reaction mixture to all wells;
2. Add 10 ul test compound (or solvent blank) to appropriate wells, mix 20 seconds;
3. Add 50 nanograms of sPLA2 (10 microliters) to appropriate wells;
4. Incubate plate at 40° C. for 30 minutes;
All compounds were tested in triplicate. […] Each sample was titrated in triplicate and result values were averaged for plotting and calculation of IC50 values.
The term IC50 denotes the concentration that inhibits the measured activity by half. Take “2-(3-(Biphenyl-2-yl-methyl)-8-(carboxymethyloxy)-2-ethylindolizine-1-yl)glyoxylamide diglycolate [Compound 59j]”: the IC50 is 53 nM. With `CCc1c(Cc2ccccc2)c2ccc(OCCCC(=O)O)cn2c1C(=O)C(N)=O` [Compound 11, (1-Benzyl-6-(3-carboxypropyloxy)-2-ethylindolizin-3-yl)glyoxylamide] the figure was 1100 nM. The result for `CCc1c(CC(N)=O)c2c(O)cccn2c1Cc1ccccc1-c1ccccc1` [Compound 20x, 2-(2-Ethyl-8-hydroxy-3-(o-phenylbenzyl)-indolizin-1-yl)acetamide] reads 840 nM. As to `CCc1c(CC(N)=O)c2c(OCC(=O)OCc3ccccc3)cccn2c1Cc1ccccc1-c1ccccc1` [Compound 21x, 2-(8-(Benzyloxycarbonylmethyloxy)-2-ethyl-3-(o-phenylbenzyl)indolizin-1-yl)acetamide], the IC50 is 140 nM.

On to `CCc1c(CC(N)=O)c2c(OCC(=O)O)cccn2c1Cc1ccccc1-c1ccccc1` [Compound 22x, 2-(8-(Carboxymethyloxy)-2-ethyl-3-(o-phenylbenzyl)indolizin-1-yl)acetamide], for which the IC50 came out at 14 nM.

`CCc1c(CC(N)=O)c2c(OCC(=O)O)cccn2c1Cc1cccc(Cl)c1` [Compound 22y, 2-(8-(Carboxymethyloxy)-3-(m-chlorobenzyl)-2-ethylindolizin-1-yl)acetamide]: the IC50 amounted to 15 nM. With `CCc1c(C(=O)C(N)=O)c2c(OCC(=O)O)cccn2c1Cc1ccccc1` [Compound 40a, (3-Benzyl-8-(carboxymethyloxy)-2-ethylindolizin-1-yl)glyoxylamide] the figure was 8 nM; with `CCc1c(C(=O)C(=O)NC)c2c(OCC(=O)O)cccn2c1Cc1ccccc1` [Compound 40b, (3-Benzyl-8-(carboxymethyloxy)-2-ethylindolizin-1-yl)glyoxyl-N-methylamide, reference compound], above 50000 nM; with `CCc1c(C(=O)C(=O)N(C)C)c2c(OCC(=O)O)cccn2c1Cc1ccccc1` [Compound 40c, (3-Benzyl-8-(carboxymethyloxy)-2-ethylindolizin-1-yl)glyoxyl-N,N-dimethylamide, reference compound], above 50000 nM. As to `Cc1c(C(=O)C(N)=O)c2c(OCC(=O)O)cccn2c1Cc1ccccc1` [Compound 40g, (3-Benzyl-8-(carboxymethyloxy)-2-methylindolizin-1-yl)glyoxylamide], the IC50 worked out at 8 nM. As to `CCc1c(C(=O)C(N)=O)c2c(OCC(=O)OC)cccn2c1Cc1cccs1` [Compound 51k], the IC50 was 220 nM. With `CCc1c(C(=O)C(N)=O)c2c(OCC(=O)O)cccn2c1CC1CCCCC1` [Compound 52b, 2-(8-Carboxymethyloxy-3-cyclohexylmethyl-2-ethylindolizin-1-yl)glyoxylamide] the figure was 21 nM. The result for `CCc1c(C(=O)C(N)=O)c2c(OCC(=O)O)cccn2c1CC1CCCCCC1` [Compound 52d, 2-(8-Carboxymethyloxy-3-cycloheptylmethyl-2-ethylindolizin-1-yl)glyoxylamide] reads 23 nM.

Regarding `CCCCCc1c(CC)c(C(=O)C(N)=O)c2c(OCC(=O)O)cccn12` [Compound 52e, 2-(8-Carboxymethyloxy-2-ethyl-3-pentylindolizin-1-yl)glyoxylamide], the concentration for half-maximal inhibition (IC50) was found to be 62 nM.

Consider `CCc1c(C(=O)C(N)=O)c2c(OCC(=O)O)cccn2c1CCc1ccccc1` [Compound 52i, 2-(8-(Carboxymethyoxy)-2-ethyl-3-(2-phenylethyl)indolizin-1-yl)glyoxylamide], for which the IC50 came to 51 nM. Take `CCc1c(C(=O)C(N)=O)c2c(OCC(=O)O)cccn2c1Cc1ccccc1Cc1ccccc1` [Compound 52j, 2-(8-(Carboxymethyloxy)-3-o-benzylbenzyl-2-ethylindolizin-1-yl)glyoxylamide]: the IC50 was determined as 6 nM. `CCc1c(C(=O)C(N)=O)c2c(OCC(=O)O)cccn2c1Cc1cccs1` [Compound 52k, 2-(8-(Carboxymethyloxy)-2-ethyl-3-(thiophen-2-ylmethyl)indolizin-1-yl)glyoxylamide]: the IC50 was 11 nM.

`CCc1c(C(=O)C(N)=O)c2c(OCC(=O)O)cccn2c1Cc1cccc(OC)c1` [Compound 52m, 2-(2-Ethyl-8-(carboxymethyloxy)-3-(m-methoxybenzyl)indolizine-1-yl)glyoxylamide]: the IC50 amounted to 21 nM. Turning to `CCc1c(C(=O)C(N)=O)c2c(OCC(=O)O)cccn2c1Cc1ccccc1[N+](=O)[O-]` [Compound 52n, 2-(2-Ethyl-8-(carboxymethyloxy)-3-(o-nitrobenzyl)indolizine-1-yl)glyoxylamide], the IC50 was determined as 36 nM. Take `CCCCCC1CCC(Cc2c(CC)c(C(=O)C(N)=O)c3c(OCC(=O)O)cccn23)CC1` (stereo not drawn) [Compound 52o, 2-(8-(Carboxymethyloxy)-2-ethyl-3-(4-n-pentylcyclohexylmethyl)indolizin-1-yl)glyoxylamide]: the IC50 came out at 25 nM. The result for `NC(=O)C(=O)c1c(C2CC2)c(Cc2ccccc2)n2cccc(OCC(=O)O)c12` [Compound 52r, 2-(3-Benzyl-8-carboxymethyloxy-2-cyclopropylindolizin-1-yl)-glyoxylamide] reads 46 nM.

For `CCCCc1ccc(Cc2c(CC)c(C(=O)C(N)=O)c3c(OCC(=O)O)cccn23)cc1` [Compound 52s, 2-(3-(p-n-Butylbenzyl)-8-(carboxymethyloxy)-2-ethylindolizin-1-yl)glyoxylamide], the IC50 was determined as 11 nM. With `NC(=O)C(=O)c1c(C2CC2)c(CC2CCCC2)n2cccc(OCC(=O)O)c12` [Compound 52v, 2-(8-(Carboxymethyloxy)-3-cyclopentylmethyl-2-cyclopropylindolizin-1-yl)glyoxylamide] the figure was 29 nM; with `Cc1c(C(=O)C(N)=O)c2c(OCC(=O)O)cccn2c1CC1CCCC1` [Compound 52w, 2-(8-(Carboxymethyloxy)-3-cyclopentylmethyl-2-methylindolizin-1-yl)glyoxylamide], 14 nM; with `CCc1c(C(=O)C(N)=O)c2c(OCC(=O)OC)cccn2c1Cc1cccc(-c2ccccc2)c1` [Compound 57g, 2-(8-Carbomethoxymethyloxy-2-ethyl-3-(m-phenylbenzyl)indlolin-1-yl)glyoxylamide], 80 nM. `COC(=O)COc1cccn2c(Cc3cccc4ccccc34)c(C3CC3)c(C(=O)C(N)=O)c12` [Compound 57j, 2-(8-Carbomethoxymethyloxy-2-cyclopropyl-3-(1-naphthylmethyl)indlolin-1-yl)glyoxylamide]: the IC50 is 790 nM. Take `Cc1c(C(=O)C(N)=O)c2c(OCC(=O)O)cccn2c1Cc1ccccc1-c1ccccc1` [Compound 58a, 2-(3-(Biphenyl-2-ylmethyl)-8-carboxymethoxyl-2-methylindolizin-1-yl)glyoxylamide]: the IC50 worked out at 8 nM. The result for `CC(C)c1c(C(=O)C(N)=O)c2c(OCC(=O)O)cccn2c1Cc1ccccc1-c1ccccc1` [Compound 58c] reads 35 nM; that for `CCc1c(C(=O)C(N)=O)c2c(OCC(=O)OC(C)OC(=O)OC)cccn2c1Cc1ccccc1-c1ccccc1` (stereo not drawn) [Compound 59b, 2-(3-Biphenyl-2-ylmethyl-8-(1-methoxycarbonyloxyethoxycarbonylmethoxy)-2-ethylindolizin-1-yl)glyoxylamide], 11 nM; that for `CCc1c(C(=O)C(N)=O)c2c(OCC(=O)OC(C)OC(=O)OC(C)C)cccn2c1Cc1ccccc1-c1ccccc1` (stereo not drawn) [Compound 59c, 2-(3-Biphenyl-2-ylmethyl-2-ethyl-8-(1-isopropyloxycarbonyloxyethoxycarbonylmethoxy)indolizin-1-yl)glyoxylamide], 46 nM. With `CCc1c(C(=O)C(N)=O)c2c(OCC(=O)OC(C)C(=O)OC3CCCCC3)cccn2c1Cc1ccccc1-c1ccccc1` (stereo not drawn) [Compound 59e] the figure was 55 nM; with `CCc1c(C(=O)C(N)=O)c2c(OCC(=O)OCCC(=O)OC3(C)CCCC3)cccn2c1Cc1ccccc1-c1ccccc1` [Compound 59h, 2-(3-Biphenyl-2-ylmethyl-2-ethyl-8-(1-methylcyclopentyloxycarbonylethyloxycarbonyl-methyloxy)-indolizin-1-yl)glyoxylamide], 61 nM; with `CCc1c(C(=O)C(N)=O)c2c(OCc3nnnn3C(c3ccccc3)(c3ccccc3)c3ccccc3)cccn2c1Cc1ccccc1-c1ccccc1` [Compound 59l, 2-(3-(Biphenyl-2-yl-methyl)-2-ethyl-8-(1-tritytretrazol(-5-yl)methyloxy)indolizine-1-yl)glyoxylamide], 110 nM. In the case of `CCc1c(C(=O)C(N)=O)c2cc(OCCCC(=O)O)ccn2c1Cc1ccccc1` [Compound 67a, 2-(3-Benzyl-7-(3-carboxylpropyloxy)-2-ethylindolizin-1-yl)glyoxylamide], the IC50 was 200 nM. The result for `CCc1c(C(=O)C(N)=O)c2cc(OCCCC(=O)O)ccn2c1Cc1ccccc1-c1ccccc1` [Compound 67c, 2-(7-(3-Carboxypropyloxy)-2-ethyl-3-(o-phenylbenzyl)indolizin-1-yl)glyoxylamide] reads 140 nM; that for `CCc1c(C(=O)C(N)=O)c2c(OCCC(=O)O)cccn2c1Cc1ccccc1-c1ccccc1` [Compound 70a, 2-(3-(Biphenyl-2-yl-methyl)-8-(carboxyethyloxy)-2-ethylindolizine-1-yl)glyoxylamide], 44 nM. With `CCc1c(C(=O)C(N)=O)c2cc(OCCC(=O)O)ccn2c1Cc1ccccc1-c1ccccc1` [Compound 70b] the figure was 240 nM; with `CCOC(=O)CCCOc1ccn2c(Cc3ccccc3-c3ccccc3)c(CC)c(CC(N)=O)c2c1` [Compound 71a, 2-(7-(3-Carbethoxypropyloxy)-2-ethyl-3-(o-phenylbenzyl)indolizin-1-yl)acetamide], 600 nM. The result for `COC(=O)COc1cccn2c(Cc3ccccc3-c3ccccc3)c(SC)c(C(=O)C(N)=O)c12` [Compound 82, 2-(8-(Carbomethoxymethyloxy)-2-methylthio-3-(o-phenylbenzyl)indolizin-1-yl)glyoxylamide] reads 120 nM.
